# Source: ChEMBL document CHEMBL3124876, “A perylene derivative regulates HIF-1α and Stat3 signaling pathways” (Bioorg Med Chem, 2014)
# Activity calls are given as the source filed them. The rule behind the calls is not given here.
# Legend:
# [1] = biological target: Hypoxia-inducible factor 1-alpha (Homo sapiens) (UniProt Q16665); experiment: Inhibition of HIF-1alpha in human MDA-MB-231 cells at 10 uM after 18 hrs by Western blotting analysis in hypoxia condition; type: cell-based
# [2] = biological target: Signal transducer and activator of transcription 3 (Homo sapiens) (UniProt P40763); experiment: Inhibition of Stat3 in human MDA-MB-231 cells assessed as inhibition of Stat3 phosphorylation at 10 uM after 18 hrs by Western blotting analysis; type: cell-based
# MDA-MB-231 [3] = experiment: Anticancer activity in human MDA-MB-231 cells assessed as reduction of total Stat3 level at 10 uM after 18 hrs by Western blotting analysis; type: functional, cell-based
# MCF7 = experiment: Induction of apoptosis in human MCF7 cells up to 20 uM by MTT assay; type: functional, cell-based
# [4] = biological target: Signal transducer and activator of transcription 3 (Homo sapiens) (UniProt P40763); experiment: Inhibition of Stat3 phosphorylation in human MDA-MB-231 cells assessed as inhibition of c-Myc expression at 1 to 20 uM by Western blotting analysis; type: cell-based
# [5] = biological target: Signal transducer and activator of transcription 3 (Homo sapiens) (UniProt P40763); experiment: Inhibition of Stat3 phosphorylation in human MDA-MB-231 cells at 1 to 20 uM by Western blotting analysis; type: cell-based
# [6] = biological target: Hypoxia-inducible factor 1-alpha (Homo sapiens) (UniProt Q16665); experiment: Inhibition of HIF-1 alpha in human MDA-MB-231 cells at 1 to 20 uM by Western blotting analysis; type: cell-based
# Homo sapiens = organism: Homo sapiens; experiment: Inhibition of telomerase (unknown origin)
# [7] = biological target: Hypoxia-inducible factor 1-alpha (Homo sapiens) (UniProt Q16665); experiment: Inhibition of HIF-1 alpha in human PANC1 cells after 3 hrs by Western blotting analysis in hypoxia condition; type: cell-based; conditions: PANC-1
# MDA-MB-231 [8] = experiment: Antitumor activity against human MDA-MB-231 cells xenografted in Balb nu/nu mouse assessed as reduction in tumor growth at 10 mg/kg, ip administered every other day for 10 days; type: functional, organism-based; parameters: dose 10 mg/kg
# [9] = biological target: Signal transducer and activator of transcription 3 (Homo sapiens) (UniProt P40763); experiment: Inhibition of IL6-induced STAT3 phosphorylation in human PANC1 cells after 3 hrs by Western blotting analysis in hypoxia condition; type: cell-based; conditions: PANC-1
# Sequence of Signal transducer and activator of transcription 3 (Homo sapiens) (P40763 whole entry): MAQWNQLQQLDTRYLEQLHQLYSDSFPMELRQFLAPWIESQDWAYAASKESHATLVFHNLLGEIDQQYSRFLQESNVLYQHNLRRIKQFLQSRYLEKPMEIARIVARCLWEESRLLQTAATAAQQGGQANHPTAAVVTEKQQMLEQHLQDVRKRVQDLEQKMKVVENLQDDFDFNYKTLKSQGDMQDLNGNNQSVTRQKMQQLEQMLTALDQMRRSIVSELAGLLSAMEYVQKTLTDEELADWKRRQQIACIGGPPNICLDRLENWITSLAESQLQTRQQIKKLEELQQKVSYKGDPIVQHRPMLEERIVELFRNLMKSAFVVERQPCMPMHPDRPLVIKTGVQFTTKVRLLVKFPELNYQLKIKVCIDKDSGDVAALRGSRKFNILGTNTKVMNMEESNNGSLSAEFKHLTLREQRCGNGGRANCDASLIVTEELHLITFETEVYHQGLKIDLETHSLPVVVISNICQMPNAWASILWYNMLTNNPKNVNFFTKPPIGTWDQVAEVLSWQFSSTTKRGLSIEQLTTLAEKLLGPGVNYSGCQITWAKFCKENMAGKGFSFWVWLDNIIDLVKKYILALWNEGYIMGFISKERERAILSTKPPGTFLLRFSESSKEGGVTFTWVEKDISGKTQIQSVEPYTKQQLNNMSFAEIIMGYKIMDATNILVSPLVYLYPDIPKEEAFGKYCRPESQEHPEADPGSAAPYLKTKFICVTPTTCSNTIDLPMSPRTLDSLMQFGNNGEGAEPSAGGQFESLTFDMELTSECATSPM
# Sequence of Hypoxia-inducible factor 1-alpha (Homo sapiens) (Q16665 whole entry, looked up): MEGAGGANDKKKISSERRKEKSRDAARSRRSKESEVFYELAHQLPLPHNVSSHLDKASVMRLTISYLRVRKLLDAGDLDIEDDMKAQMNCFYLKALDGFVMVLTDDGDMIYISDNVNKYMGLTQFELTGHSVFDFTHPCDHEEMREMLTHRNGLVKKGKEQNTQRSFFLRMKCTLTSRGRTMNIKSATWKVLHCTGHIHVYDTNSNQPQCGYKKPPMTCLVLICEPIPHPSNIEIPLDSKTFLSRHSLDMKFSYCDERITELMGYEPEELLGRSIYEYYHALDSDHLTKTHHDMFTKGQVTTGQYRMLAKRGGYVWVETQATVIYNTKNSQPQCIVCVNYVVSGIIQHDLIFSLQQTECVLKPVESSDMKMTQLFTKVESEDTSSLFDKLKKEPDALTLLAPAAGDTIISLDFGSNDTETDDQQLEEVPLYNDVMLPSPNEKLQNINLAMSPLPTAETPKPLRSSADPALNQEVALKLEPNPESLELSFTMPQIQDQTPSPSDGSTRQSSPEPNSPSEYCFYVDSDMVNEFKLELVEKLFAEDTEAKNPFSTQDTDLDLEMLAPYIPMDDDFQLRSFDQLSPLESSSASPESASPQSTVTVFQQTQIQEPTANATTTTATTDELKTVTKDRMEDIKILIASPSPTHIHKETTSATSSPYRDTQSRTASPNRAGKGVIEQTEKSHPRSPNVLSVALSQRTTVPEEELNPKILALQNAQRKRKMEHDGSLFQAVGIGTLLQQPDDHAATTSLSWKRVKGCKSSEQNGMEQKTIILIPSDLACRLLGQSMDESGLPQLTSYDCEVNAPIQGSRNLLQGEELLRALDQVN
SMILES,inhibition [1],inhibition [2],Activity (MDA-MB-231 [3]),Activity (MCF7),inhibition [4],inhibition [5],inhibition [6],inhibition (Homo sapiens),inhibition [7],Activity (MDA-MB-231 [8]),inhibition [9]
CN(CCCN)CCCN1C(=O)c2ccc3c4ccc5c6c(ccc(c7ccc(c2c37)C1=O)c64)C(=O)N(CCCN(C)CCCCN)C5=O,inactive,inactive,inactive,–,–,–,–,–,–,–,–
NCCCN1C(=O)c2ccc3c4ccc5c6c(ccc(c7ccc(c2c37)C1=O)c64)C(=O)N(CCCN)C5=O,inactive,inactive,inactive,–,–,–,–,–,–,–,–
NCCN1C(=O)c2ccc3c4ccc5c6c(ccc(c7ccc(c2c37)C1=O)c64)C(=O)N(CCN)C5=O,inactive,inactive,inactive,inactive,inactive,inactive,inactive,Active,–,–,–
Nc1ccn([C@@H]2O[C@H](COP(=O)(O)O[C@H]3[C@@H](O)[C@H](n4cnc5c(=O)[nH]c(N)nc54)O[C@@H]3COP(=O)(O)O[C@H]3[C@@H](O)[C@H](n4cnc5c(=O)[nH]c(N)nc54)O[C@@H]3COP(=O)(O)O[C@H]3[C@@H](O)[C@H](n4cnc5c(=O)[nH]c(N)nc54)O[C@@H]3COP(=O)(O)O[C@H]3[C@@H](O)[C@H](n4ccc(N)nc4=O)O[C@@H]3COP(=O)(O)O[C@H]3[C@@H](O)[C@H](n4cnc5c(=O)[nH]c(N)nc54)O[C@@H]3COP(=O)(O)O[C@H]3[C@@H](O)[C@H](n4cnc5c(=O)[nH]c(N)nc54)O[C@@H]3COP(=O)(O)O[C@H]3[C@@H](O)[C@H](n4cnc5c(=O)[nH]c(N)nc54)O[C@@H]3COP(=O)(O)O[C@H]3[C@@H](O)[C@H](n4ccc(N)nc4=O)O[C@@H]3COP(=O)(O)O[C@H]3[C@@H](O)[C@H](n4cnc5c(=O)[nH]c(N)nc54)O[C@@H]3COP(=O)(O)O[C@H]3[C@@H](O)[C@H](n4cnc5c(=O)[nH]c(N)nc54)O[C@@H]3COP(=O)(O)O[C@H]3[C@@H](O)[C@H](n4cnc5c(=O)[nH]c(N)nc54)O[C@@H]3COP(=O)(O)O[C@H]3[C@@H](O)[C@H](n4ccc(N)nc4=O)O[C@@H]3COP(=O)(O)O[C@H]3[C@@H](O)[C@H](n4cnc5c(=O)[nH]c(N)nc54)O[C@@H]3COP(=O)(O)O[C@H]3[C@@H](O)[C@H](n4cnc5c(=O)[nH]c(N)nc54)O[C@@H]3COP(=O)(O)O[C@H]3[C@@H](O)[C@H](n4cnc5c(=O)[nH]c(N)nc54)O[C@@H]3COP(=O)(O)O)[C@@H](O)[C@H]2O)c(=O)n1,–,–,–,–,–,–,–,–,inactive,Active,Active
